Reference: publication PMC3454389, “Mining the Sinorhizobium meliloti Transportome to Develop FRET Biosensors for Sugars, Dicarboxylates and Cyclic Polyols” (PLoS ONE, 2012)

Key:
YtfQ = target: YtfQ; parameters: method as in PMID 19744923; details: YtfQ from E. coli; cited from earlier work
RL2376-CY = target: T1, RL2376-CY (Rhizobium leguminosarum, UniProt Q1MGQ3); assay: FRET biosensor RL2376-CY, in vitro ligand titration; assay type: binding; details: pCYS (pLMB394), Tris-HCl pH 8.5, read-out: Kd
T1 sequence (Q1MGQ3 24-320): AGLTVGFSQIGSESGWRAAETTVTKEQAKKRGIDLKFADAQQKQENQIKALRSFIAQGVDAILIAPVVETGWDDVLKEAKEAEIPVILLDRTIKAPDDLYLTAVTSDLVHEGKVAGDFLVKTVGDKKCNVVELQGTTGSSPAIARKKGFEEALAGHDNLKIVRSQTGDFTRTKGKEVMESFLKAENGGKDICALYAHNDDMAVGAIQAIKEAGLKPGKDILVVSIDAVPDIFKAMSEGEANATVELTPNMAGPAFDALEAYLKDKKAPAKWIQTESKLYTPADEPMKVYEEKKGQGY
Procedure: (§1) Ligand-induced FRET ratio changes of purified FRET biosensor were screened using a LS55 luminescence spectrometer (PerkinElmer Instruments). Excitation (ex.) was at (λ/slit width) 433/10 nm (CFP) or 549/10 nm (OFP). Emission (em.) was measured at 475/10 nm (CFP), 527/10 nm (YFP), 573/10 nm (OFP) and 644/10 nm (RFP). To confirm that Aphrodite and mKate2 were properly folded their fluorescence was individually tested by direct excitation at 510/6 nm and 588/10 nm respectively.
(§2) Affinity constants (Kd) of FRET biosensors with specific ligands were established using a monochromator microplate reader (Safire, Tecan, Switzerland; CFP ex.: (λ\bandwidth) 433/12 nm, em.: 475/12 nm; YFP em.: 527/12 nm. OFP ex.: 533/12 nm, em.: 563/12 nm; RFP em.: 615/12 nm). Proteins were diluted to give relative fluorescence units (RFU) in the detection range of 30,000 to 50,000 RFU at a gain of 90 to 100, and then were added to a dilution series (10^−3 to 10^−11 M) of ligand in Tris-HCl (pH 8.5, 50 mM). The change in relative emission intensities at 527/477 nm (YFP/CFP) or 615/563 nm (RFP/OFP) was used to determine Kd by fitting the titration curves to a single-site-binding isotherm: [drawing 1] with: R, ratio; Rapo, ratio without ligand; Rsat, ratio at saturation of ligand; n, number of equal binding sites; [L], ligand concentration. Non-linear regression was used to fit the curves using SigmaPlot 11 (Systat Software Inc.) (Hill equation, 4 Parameters, b = 1). All measurements were done in quadruplicate.

RL2376-RO = assay: RL2376-RO, FRET ratio change on ligand; assay type: binding, Rhizobium leguminosarum
Procedure: as §1
as §2, with “Non-linear regression was used to fit the curves using SigmaPlot 11 (Systat Software Inc.) (Hill equation, 4 Parameters, b = 1). All measurements were done in quadruplicate.” left out

[1] = tested on: genes encoding the ABC-transporter (RL2376-9); details: RL2376, Table 1; cited from earlier work

O=C[C@H](O)[C@@H](O)[C@@H](O)[C@H](O)CO [D-galactose]
Kd (YtfQ): 1.7 ± 0.3 µM | Kd (RL2376-CY): 5.3 µM | change in FRET ratio on binding ligand (RL2376-RO): no change in FRET ratio | Inducer of gene expression (fold change) [1]: D-galactose (2.6) fold
